Measured values reported in patent publication US6476079B1, “Devices for the delivery of drugs having antiprogestinic properties” (priority 1999, dated 2002).

Assay: Permeation test of antiprogestins through elastomer membranes (two-compartment diffusion cell)
Assay type: physicochemical
Details: 37° C.
Method: The assay apparatus described in the publication Yie W. Chien, Transdermal Controlled Systemic Medications, Marcel Dekker Inc., New York and Basel 1987, page 173, was used in the tests.
The drug fluxes (permeations) through membranes were measured with a two-compartment diffusion cell at 37° C. (Side-Bi-Side™ diffusion cell, Crown Glass Company). The apparatus consisted of two concentric cells (donor and receptor compartments) that were separated by the elastomer membrane to be investigated. […] A drug solution and solvent (without drug) was added into the donor and the receptor compartments. At each predetermined time interval, samples were withdrawn from the receptor compartment and replaced with the same volume of solvent. The amount of the drug that permeated through the membrane was measured by HPLC. In all measurements, the thickness (0.4 mm) of the membrane and the surface area of the membranes were constant.
In the tests described below, the permeation rates of two different drugs through a 0.4-mm-thick elastomer membrane were measured by using the assay apparatus described above. The tables below show the effect of the concentration of PEO groups (% by weight of the said compositions) on the permeation rates of the different drugs for elastomers prepared from different composition types. The tables show the relative permeation as compared with a commercial crosslinked dimethyl siloxane-vinyl methyl siloxane elastomer (Mn approximately 400,000 g/mol) containing a silica filler.

[1] = composition type A, PEO concentration 4.7 % by weight, 0.4 mm membrane, relative to reference elastomer
[2] = composition type A, PEO concentration 5.1 % by weight, 0.4 mm membrane, relative to reference elastomer
[3] = reference membrane: commercial crosslinked dimethyl siloxane-vinyl methyl siloxane elastomer with silica filler, PEO 0 % by weight, 0.4 mm
[4] = composition type B, PEO concentration 3.1 % by weight, 0.4 mm membrane, relative to reference elastomer
[5] = composition type B, PEO concentration 4.1 % by weight, 0.4 mm membrane, relative to reference elastomer
[6] = composition type B, PEO concentration 5.0 % by weight, 0.4 mm membrane, relative to reference elastomer
[7] = composition type B, PEO concentration 7.5 % by weight, 0.4 mm membrane, relative to reference elastomer
[8] = composition type B, PEO concentration 9.8 % by weight, 0.4 mm membrane, relative to reference elastomer

Compound: COC[C@]1(OC)CC[C@H]2[C@@H]3CCC4=CC(=O)CCC4=C3[C@@H](c3ccc(/C=N/O)cc3)C[C@@]21C [Compound 1, 4-[17β-methoxy-17α-(methoxymethyl)-3-oxoestra-4,9-dien-11β-yl]benzaldehyde-1-(E)-oxime]
- Relative permeation [1]: 3.5
- Relative permeation [2]: 5.3
- Relative permeation [3]: 1

Compound: CCNC(=O)ON=Cc1ccc(C2CC3(C)C(CCC3(COC)OC)C3CCC4=CC(=O)CCC4=C23)cc1 (stereo not drawn) [Compound 2, 4-[17β-Methoxy-17α-(methoxymethyl)-3-oxoestra-4,9-dien-11β-yl]benzaldehyde-1-[O-(ethylamino)carbonyl]oxime]
- Relative permeation [1]: 4.1
- Relative permeation [2]: 7.6
- Relative permeation [4]: 3.7
- Relative permeation [5]: 4.1
- Relative permeation [6]: 5.8
- Relative permeation [7]: 11.5
- Relative permeation [8]: 17.3
- Relative permeation [3]: 1

Compound: CCSC(=O)O/N=C/c1ccc([C@H]2C[C@@]3(C)[C@@H](CC[C@@]3(COC)OC)[C@@H]3CCC4=CC(=O)CCC4=C32)cc1 [Compound 3]
- Relative permeation (composition type B, PEO concentration 1.4 % by weight, 0.4 mm membrane, relative to reference elastomer): 2.1
- Relative permeation [8]: 6.4
- Relative permeation [3]: 1

Compound: CC(=O)c1ccc([C@H]2C[C@@]3(C)[C@@H](CC[C@@]3(O)C(F)(F)C(F)(F)F)[C@@H]3CCC4=CC(=O)CCC4=C32)cc1 [Compound 4, 11β-(4-Acetylphenyl)-17β-hydroxy-17α-(1,1,2,2,2-pentafluoroethyl)estra-4,9-dien-3-one]
- Relative permeation [7]: 16.4
- Relative permeation [8]: 27.6
- Relative permeation [3]: 1

Compound: CN(C)c1ccc([C@H]2C[C@@]3(C)[C@@H](CC[C@@]3(O)/C=C\CO)[C@@H]3CCC4=CC(=O)CC[C@@H]4[C@H]32)cc1 [Compound 5, Estr-4-en-3-one, 11-[4-(dimethylamino)phenyl]-17-hydroxy-17-(3-hydroxy-1-propenyl)-,[11.beta,17β,17(Z)]-(9CI)]
- Relative permeation [1]: 4.1
- Relative permeation [4]: 6.0
- Relative permeation [5]: 6.7
- Relative permeation [6]: 10.7
- Relative permeation [7]: 18.7
- Relative permeation [8]: 37.2
- Relative permeation [3]: 1

Compound: (Z)-6′-(4-Cyanophenyl)-17-β-hydroxy-17-α-(3-isovaleryloxy-1-propenyl))-9,11-α-diydro-4′H-naphth [3′,2′,1′:10,9,11]estr-4-en-3-one [Compound 6]
- Relative permeation [1]: 2.9
- Relative permeation (composition type A, PEO concentration 5.3 % by weight, 0.4 mm membrane, relative to reference elastomer): 5.9
- Relative permeation [3]: 1
